# Test results taken from BigSolDB 2.1.
smiles,measurement,setting,value
O=[N+]([O-])c1cn[nH]c1,solubility (mole fraction),"in THF, 288.15 K",0.00413
same,solubility (mole fraction),"in THF, 293.15 K",0.00496
same,solubility (mole fraction),"in THF, 298.15 K",0.00592
same,solubility (mole fraction),"in THF, 303.15 K",0.00722
same,solubility (mole fraction),"in THF, 308.15 K",0.0089
same,solubility (mole fraction),"in THF, 313.15 K",0.011
same,solubility (mole fraction),"in THF, 318.15 K",0.0134
same,solubility (mole fraction),"in THF, 323.15 K",0.017
same,solubility (mole fraction),"in THF, 328.15 K",0.022
same,solubility (mole fraction),"in acetone, 288.15 K",0.0381
same,solubility (mole fraction),"in acetone, 293.15 K",0.0405
same,solubility (mole fraction),"in acetone, 298.15 K",0.0423
same,solubility (mole fraction),"in acetone, 303.15 K",0.045
same,solubility (mole fraction),"in acetone, 308.15 K",0.047
same,solubility (mole fraction),"in acetone, 313.15 K",0.0495
same,solubility (mole fraction),"in acetone, 318.15 K",0.0525
same,solubility (mole fraction),"in acetone, 323.15 K",0.0553
same,solubility (mole fraction),"in acetone, 328.15 K",0.0582
same,solubility (mole fraction),"in acetonitrile, 288.15 K",0.0391
same,solubility (mole fraction),"in acetonitrile, 293.15 K",0.0457
same,solubility (mole fraction),"in acetonitrile, 298.15 K",0.0529
same,solubility (mole fraction),"in acetonitrile, 303.15 K",0.0647
same,solubility (mole fraction),"in acetonitrile, 308.15 K",0.0776
same,solubility (mole fraction),"in acetonitrile, 313.15 K",0.0906
same,solubility (mole fraction),"in acetonitrile, 318.15 K",0.108
same,solubility (mole fraction),"in acetonitrile, 323.15 K",0.124
same,solubility (mole fraction),"in acetonitrile, 328.15 K",0.135
same,solubility (mole fraction),"in ethanol, 288.15 K",0.101
same,solubility (mole fraction),"in ethanol, 293.15 K",0.113
same,solubility (mole fraction),"in ethanol, 298.15 K",0.128
same,solubility (mole fraction),"in ethanol, 303.15 K",0.147
same,solubility (mole fraction),"in ethanol, 308.15 K",0.168
same,solubility (mole fraction),"in ethanol, 313.15 K",0.197
same,solubility (mole fraction),"in ethanol, 318.15 K",0.232
same,solubility (mole fraction),"in ethanol, 323.15 K",0.27
same,solubility (mole fraction),"in ethanol, 328.15 K",0.31
same,solubility (mole fraction),"in ethyl acetate, 288.15 K",0.00483
same,solubility (mole fraction),"in ethyl acetate, 293.15 K",0.00609
same,solubility (mole fraction),"in ethyl acetate, 298.15 K",0.00759
same,solubility (mole fraction),"in ethyl acetate, 303.15 K",0.00946
same,solubility (mole fraction),"in ethyl acetate, 308.15 K",0.0118
same,solubility (mole fraction),"in ethyl acetate, 313.15 K",0.0144
same,solubility (mole fraction),"in ethyl acetate, 318.15 K",0.0176
same,solubility (mole fraction),"in ethyl acetate, 323.15 K",0.0214
same,solubility (mole fraction),"in ethyl acetate, 328.15 K",0.0261
same,solubility (mole fraction),"in isobutanol, 288.15 K",0.0549
same,solubility (mole fraction),"in isobutanol, 293.15 K",0.0648
same,solubility (mole fraction),"in isobutanol, 298.15 K",0.0762
same,solubility (mole fraction),"in isobutanol, 303.15 K",0.0908
same,solubility (mole fraction),"in isobutanol, 308.15 K",0.107
same,solubility (mole fraction),"in isobutanol, 313.15 K",0.132
same,solubility (mole fraction),"in isobutanol, 318.15 K",0.161
same,solubility (mole fraction),"in isobutanol, 323.15 K",0.195
same,solubility (mole fraction),"in isobutanol, 328.15 K",0.247
same,solubility (mole fraction),"in isopentanol, 288.15 K",0.0629
same,solubility (mole fraction),"in isopentanol, 293.15 K",0.0732
same,solubility (mole fraction),"in isopentanol, 298.15 K",0.0854
same,solubility (mole fraction),"in isopentanol, 303.15 K",0.106
same,solubility (mole fraction),"in isopentanol, 308.15 K",0.12
same,solubility (mole fraction),"in isopentanol, 313.15 K",0.143
same,solubility (mole fraction),"in isopentanol, 318.15 K",0.173
same,solubility (mole fraction),"in isopentanol, 323.15 K",0.213
same,solubility (mole fraction),"in isopentanol, 328.15 K",0.262
same,solubility (mole fraction),"in isopropanol, 288.15 K",0.0481
same,solubility (mole fraction),"in isopropanol, 293.15 K",0.0568
same,solubility (mole fraction),"in isopropanol, 298.15 K",0.0675
same,solubility (mole fraction),"in isopropanol, 303.15 K",0.0827
same,solubility (mole fraction),"in isopropanol, 308.15 K",0.0988
same,solubility (mole fraction),"in isopropanol, 313.15 K",0.121
same,solubility (mole fraction),"in isopropanol, 318.15 K",0.147
same,solubility (mole fraction),"in isopropanol, 323.15 K",0.186
same,solubility (mole fraction),"in isopropanol, 328.15 K",0.238
same,solubility (mole fraction),"in methanol, 288.15 K",0.109
same,solubility (mole fraction),"in methanol, 293.15 K",0.126
same,solubility (mole fraction),"in methanol, 298.15 K",0.142
same,solubility (mole fraction),"in methanol, 303.15 K",0.163
same,solubility (mole fraction),"in methanol, 308.15 K",0.188
same,solubility (mole fraction),"in methanol, 313.15 K",0.219
same,solubility (mole fraction),"in methanol, 318.15 K",0.258
same,solubility (mole fraction),"in methanol, 323.15 K",0.312
same,solubility (mole fraction),"in methanol, 328.15 K",0.366
same,solubility (mole fraction),"in methyl acetate, 288.15 K",0.00727
same,solubility (mole fraction),"in methyl acetate, 293.15 K",0.00817
same,solubility (mole fraction),"in methyl acetate, 298.15 K",0.00942
same,solubility (mole fraction),"in methyl acetate, 303.15 K",0.0119
same,solubility (mole fraction),"in methyl acetate, 308.15 K",0.0139
same,solubility (mole fraction),"in methyl acetate, 313.15 K",0.0169
same,solubility (mole fraction),"in methyl acetate, 318.15 K",0.0189
same,solubility (mole fraction),"in methyl acetate, 323.15 K",0.024
same,solubility (mole fraction),"in methyl acetate, 328.15 K",0.0272
same,solubility (mole fraction),"in n-butanol, 288.15 K",0.079
same,solubility (mole fraction),"in n-butanol, 293.15 K",0.0902
same,solubility (mole fraction),"in n-butanol, 298.15 K",0.104
same,solubility (mole fraction),"in n-butanol, 303.15 K",0.12
same,solubility (mole fraction),"in n-butanol, 308.15 K",0.14
same,solubility (mole fraction),"in n-butanol, 313.15 K",0.166
same,solubility (mole fraction),"in n-butanol, 318.15 K",0.199
same,solubility (mole fraction),"in n-butanol, 323.15 K",0.241
same,solubility (mole fraction),"in n-butanol, 328.15 K",0.283
same,solubility (mole fraction),"in n-pentanol, 288.15 K",0.0714
same,solubility (mole fraction),"in n-pentanol, 293.15 K",0.0823
same,solubility (mole fraction),"in n-pentanol, 298.15 K",0.095
same,solubility (mole fraction),"in n-pentanol, 303.15 K",0.112
same,solubility (mole fraction),"in n-pentanol, 308.15 K",0.132
same,solubility (mole fraction),"in n-pentanol, 313.15 K",0.156
same,solubility (mole fraction),"in n-pentanol, 318.15 K",0.189
same,solubility (mole fraction),"in n-pentanol, 323.15 K",0.232
same,solubility (mole fraction),"in n-pentanol, 328.15 K",0.276
same,solubility (mole fraction),"in n-propanol, 288.15 K",0.0872
same,solubility (mole fraction),"in n-propanol, 293.15 K",0.101
same,solubility (mole fraction),"in n-propanol, 298.15 K",0.115
same,solubility (mole fraction),"in n-propanol, 303.15 K",0.133
same,solubility (mole fraction),"in n-propanol, 308.15 K",0.154
same,solubility (mole fraction),"in n-propanol, 313.15 K",0.181
same,solubility (mole fraction),"in n-propanol, 318.15 K",0.216
same,solubility (mole fraction),"in n-propanol, 323.15 K",0.255
same,solubility (mole fraction),"in n-propanol, 328.15 K",0.313
same,solubility (mole fraction),"in water, 288.15 K",0.00217
same,solubility (mole fraction),"in water, 293.15 K",0.00286
same,solubility (mole fraction),"in water, 298.15 K",0.0036
same,solubility (mole fraction),"in water, 303.15 K",0.00471
same,solubility (mole fraction),"in water, 308.15 K",0.00618
same,solubility (mole fraction),"in water, 313.15 K",0.00763
same,solubility (mole fraction),"in water, 318.15 K",0.00961
same,solubility (mole fraction),"in water, 323.15 K",0.012
same,solubility (mole fraction),"in water, 328.15 K",0.0151
